Test results as given in patent publication US10039756B2, “Reducing memory loss in mammals suffering from alzheimer's disease” (The Penn State Research Foundation, priority 2013, dated 2018).

How the values were obtained:
LTP in DG = assay: Long-term potentiation (LTP) in dentate gyrus, hippocampal slice field EPSP recordings; assay type: cell-based, mouse; details: 50 μM; 5xFAD dentate granule cells
Method: (§1) Mice were anesthetized with 2.5% Avertin. After decapitation, brains were rapidly dissected out and placed in ice-cold cutting solution containing: 79 mM NaCl, 80 mM sucrose, 26 mM NaHCO3, 10 mM glucose, 2.5 mM KCl, 1.25 mM NaH2PO4, 7 mM MgSO4, and 0.5 mM CaCl2 for tonic current recordings. The cutting solution for field EPSP recordings contained: 230 mM sucrose, 26 mM NaHCO3, 20 mM glucose, 2.5 mM KCl, 1.25 mM NaH2PO4, 10 mM MgSO4, and 0.5 mM CaCl2. Both solutions were bubbled with 95% O2/5% CO2. […]
(§2) Whole-cell voltage clamp recordings were performed on dentate gyrus granule cells using a pipette solution containing: 135 mM CsCl, 5 mM Na-phosphocreatine, 10 mM HEPES, 5 mM EGTA, 4 mM MgATP, 5 mM QX-314, and 0.5 mM Na2GTP (pH 7.3 adjusted with CsOH, 280-290 mOsm/L). […] Data was acquired using pClamp 9 software (Molecular Devices; sampled at 10 kHz and filtered at 1 kHz), and analyzed with Clampfit 9.0 software (Molecular Devices). Field excitatory postsynaptic potentials (fEPSPs) were recorded with glass electrodes filled with 1 M NaCl and 25 mM HEPES (pH 7.3), and were evoked every 20 seconds with a parallel bipolar tungsten electrode (MicroProbes, USA), which was placed at medial perforant path in the dentate gyrus. […]

GAT-3 = target: T1, GAT-3 (Mus musculus, UniProt P31650); assay: Tonic GABA current, whole-cell patch clamp in dentate granule cells of hippocampal slices, GAT-3 block; assay type: cell-based; details: 50 μM; AD (5xFAD) dentate granule cells
T1 construct: from tissue; host or cells: mouse hippocampal slices (5xFAD and WT littermates), dentate gyrus
T1 sequence (P31650 1-627): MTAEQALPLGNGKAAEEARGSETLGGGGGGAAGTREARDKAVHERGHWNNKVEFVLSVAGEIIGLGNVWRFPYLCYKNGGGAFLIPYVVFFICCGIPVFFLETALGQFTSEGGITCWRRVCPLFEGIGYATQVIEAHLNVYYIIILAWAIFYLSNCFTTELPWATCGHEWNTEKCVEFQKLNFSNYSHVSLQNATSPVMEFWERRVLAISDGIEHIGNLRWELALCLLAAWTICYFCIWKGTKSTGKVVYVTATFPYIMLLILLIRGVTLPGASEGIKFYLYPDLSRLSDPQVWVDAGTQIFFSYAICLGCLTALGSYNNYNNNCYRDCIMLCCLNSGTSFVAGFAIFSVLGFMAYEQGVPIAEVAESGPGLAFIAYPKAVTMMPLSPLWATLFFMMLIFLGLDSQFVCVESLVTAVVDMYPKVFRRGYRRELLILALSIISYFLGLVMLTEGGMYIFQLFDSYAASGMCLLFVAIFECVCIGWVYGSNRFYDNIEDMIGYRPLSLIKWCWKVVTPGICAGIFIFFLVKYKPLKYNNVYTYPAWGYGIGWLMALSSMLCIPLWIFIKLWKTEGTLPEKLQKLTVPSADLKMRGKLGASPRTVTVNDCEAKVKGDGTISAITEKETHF
Method: as §1, §2

human GAT-1 polypeptide = human GAT-1 polypeptide (Homo sapiens, UniProt P30531); details: cited from earlier work
5xFAD mice = assay: Y-maze spontaneous alternation task; assay type: in vivo, mouse; details: 50 μmol kg-1, i.p., once per day for one week, p<0.05
Method: L-655,708 was dissolved at 1 mg/mL in DMSO, and frozen in storage aliquots. The working solution was diluted 10 times in normal saline solution. […] The last injection was administrated 30 minutes before behavioral test.
Spontaneous alternation performance was tested as described elsewhere (Oakley et al., J. Neurosci., 26(40):10129-10140 (2006)). […] It allows the assessment of hippocampus-dependent spatial working memory. Each mouse was placed in the center of a symmetrical Y-maze and was allowed to explore freely through the maze during an 8 minute session. The first two minutes were not included for data analysis because mice were exploring new environment. The total number and the sequence of arm entries in the last 6 minutes were recorded and analyzed. Arm entry was defined as the hind paws of the mice had been completely placed in the arm. Analysis was done blind. The percentage of alternation is the number of triads containing entries into all three arms divided by the maximum possible alternations (the total number of arms entered minus 2)×100.
A behavioral analysis was conducted to test the effect of enhanced tonic inhibition on the cognitive function of 5xFAD animals. […] Therefore, it was concluded that the abnormal tonic inhibition in DG is an important contributing factor toward the learning and memory deficit in AD.

human GAT-1 polypeptide, sequence (P30531 whole entry): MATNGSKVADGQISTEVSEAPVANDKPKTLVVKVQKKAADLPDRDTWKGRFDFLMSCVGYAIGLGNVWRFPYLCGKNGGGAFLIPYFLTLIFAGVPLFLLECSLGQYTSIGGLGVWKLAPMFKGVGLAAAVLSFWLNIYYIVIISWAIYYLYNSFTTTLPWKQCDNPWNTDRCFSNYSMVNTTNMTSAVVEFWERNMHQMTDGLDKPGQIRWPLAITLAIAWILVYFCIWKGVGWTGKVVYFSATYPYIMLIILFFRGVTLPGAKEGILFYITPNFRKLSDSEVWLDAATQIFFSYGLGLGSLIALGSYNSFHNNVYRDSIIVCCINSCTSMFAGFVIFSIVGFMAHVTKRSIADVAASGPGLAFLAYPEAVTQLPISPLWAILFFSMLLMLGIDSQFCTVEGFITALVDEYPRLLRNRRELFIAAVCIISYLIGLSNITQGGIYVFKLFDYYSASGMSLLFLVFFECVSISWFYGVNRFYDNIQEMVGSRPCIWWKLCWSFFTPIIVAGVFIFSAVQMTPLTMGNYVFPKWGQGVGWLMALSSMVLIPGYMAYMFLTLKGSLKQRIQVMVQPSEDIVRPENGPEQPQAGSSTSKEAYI

For `COc1ccc(C(OCCN2CCC[C@H](C(=O)O)C2)(c2ccc(OC)cc2)c2ccc(OC)cc2)cc1` [SNAP-5114, (S)-1-[2-[tris(4-methoxyphenyl)methoxy]ethyl]-3-piperidinecarboxylic acid], the “effect on LTP impairment” value (LTP in DG) is listed as “rescued the LTP impairment”, the “block of tonic GABA current” value (GAT-3) is listed as “blocked the majority of the tonic GABA current” and the IC50 (human GAT-1 polypeptide) is listed as > 75 µM. For the same molecule, the “effect on memory deficit (spontaneous alternation)” value (5xFAD mice) was “rescued the memory deficit”.
